# Results taken from patent US10195186B2.
# Columns and labels:
# [1] = target: human sortilin (S-18 cells) (Homo sapiens (Human), UniProt Q99523); assay: Endogenous PGRN endocytosis assay (PGRN ELISA of media); type: cell-based; conditions: PGRN allowed to accumulate 24 hrs, compounds added day 2, further 24 hrs
# Method: Stable cell lines expressing human sortilin (S-18) were generated by transfecting HEK293 cells with a human sortilin expression vector, followed by few rounds of passage with the appropriate selection agent.
# On day1, S-18 cells are seeded in a 96 well plate. After 24 hrs, media is completely replaced with either media or one of the test compounds. All compounds were tested at 10 μM unless otherwise specified. Media is collected on day 3 and analyzed using PGRN ELISA (R&D). Cell viability is assessed by Cell TiterGlo (ProMega) to evaluate cytotoxic effect of the compounds.
# On day 2, the compounds are added to the cells and incubated for a further 24 hrs, when the media is harvested and PGRN levels analyzed using ELISA kit.
# hSortilin = hSortilin (Homo sapiens (Human), UniProt Q99523); assay: hSortilin affinity assay: displacement of 3H-neurotensin binding, SPA format; conditions: read-out: hSortilin NTS Binding, Inhibition at 50 μM
# hSortilin, sequence (Q99523 34-755): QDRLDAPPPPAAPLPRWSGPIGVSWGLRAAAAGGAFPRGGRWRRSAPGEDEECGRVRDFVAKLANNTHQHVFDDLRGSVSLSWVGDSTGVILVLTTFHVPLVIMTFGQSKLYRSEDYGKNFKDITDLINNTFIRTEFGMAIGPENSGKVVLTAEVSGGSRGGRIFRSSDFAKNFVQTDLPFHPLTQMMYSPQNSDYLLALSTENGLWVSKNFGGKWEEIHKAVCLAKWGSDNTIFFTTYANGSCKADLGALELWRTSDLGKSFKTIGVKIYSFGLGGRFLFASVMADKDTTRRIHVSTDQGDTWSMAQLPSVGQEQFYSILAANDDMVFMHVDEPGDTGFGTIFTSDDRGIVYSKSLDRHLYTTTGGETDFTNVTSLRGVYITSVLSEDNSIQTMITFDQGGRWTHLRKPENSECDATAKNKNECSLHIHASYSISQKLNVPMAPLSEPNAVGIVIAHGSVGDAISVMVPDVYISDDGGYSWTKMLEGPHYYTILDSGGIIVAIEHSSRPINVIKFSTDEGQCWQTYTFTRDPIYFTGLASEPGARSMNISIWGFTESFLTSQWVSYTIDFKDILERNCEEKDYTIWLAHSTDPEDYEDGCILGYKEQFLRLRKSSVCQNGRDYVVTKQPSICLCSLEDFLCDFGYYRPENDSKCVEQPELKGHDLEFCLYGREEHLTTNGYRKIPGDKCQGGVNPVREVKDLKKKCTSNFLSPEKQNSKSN
# human sortilin (S-18 cells), sequence (Q99523 78-831): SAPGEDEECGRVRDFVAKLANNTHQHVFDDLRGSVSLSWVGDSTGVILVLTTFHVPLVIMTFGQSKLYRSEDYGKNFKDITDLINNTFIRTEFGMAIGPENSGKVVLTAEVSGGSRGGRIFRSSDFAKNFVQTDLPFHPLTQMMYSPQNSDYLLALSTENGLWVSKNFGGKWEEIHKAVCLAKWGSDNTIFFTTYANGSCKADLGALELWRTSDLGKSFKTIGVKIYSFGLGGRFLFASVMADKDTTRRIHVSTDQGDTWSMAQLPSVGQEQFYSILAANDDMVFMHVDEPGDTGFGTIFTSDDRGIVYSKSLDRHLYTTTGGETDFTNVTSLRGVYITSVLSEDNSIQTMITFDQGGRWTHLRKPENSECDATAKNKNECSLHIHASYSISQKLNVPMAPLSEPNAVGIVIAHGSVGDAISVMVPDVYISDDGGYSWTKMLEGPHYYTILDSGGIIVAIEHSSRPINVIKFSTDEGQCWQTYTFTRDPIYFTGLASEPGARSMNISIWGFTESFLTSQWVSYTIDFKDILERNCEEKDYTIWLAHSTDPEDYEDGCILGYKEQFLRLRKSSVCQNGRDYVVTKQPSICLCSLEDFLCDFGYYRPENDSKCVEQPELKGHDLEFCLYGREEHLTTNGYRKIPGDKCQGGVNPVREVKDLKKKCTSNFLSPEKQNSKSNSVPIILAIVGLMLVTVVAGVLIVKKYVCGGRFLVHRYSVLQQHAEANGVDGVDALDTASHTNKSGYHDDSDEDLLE
inhibition at 50 µM (hSortilin) [%],Compound,"PGRN levels in cell culture media, competition paradigm (FIG. 1) [1]"
,"Cc1cccc(NC(=O)c2ccc(C(F)(F)F)cc2C(=O)O)n1 [Example 1, N-(6-Methyl-pyridin-2-yl)-5-trifluoromethyl-phthalamic acid]",increase in PGRN levels
64,"Cc1cccnc1NC(=O)c1ccc(Br)cc1C(=O)O [Example 27, 5-Bromo-N-(3-methyl-pyridin-2-yl)-phthalamic acid]",
70,"Cc1ccc(NC(=O)c2ccc(Br)cc2C(=O)O)cn1 [Example 31, 5-Bromo-N-(6-methyl-pyridin-3-yl)-phthalamic acid]",
,"scrambled neurotensin: scrambled neurotensin, sequence LIYPRNEYELRKP (SEQ ID NO:1); does not bind sortilin, negative control (Scrambled Human Neurotensin) [reference compound]",did not have any effect
